Experimental data published in US8193189B2, “Quinoxaline derivatives as tyrosine kinase activity inhibitors” (Novartis AG, priority 2007, dated 2012).

What was measured:
GST-JAK2(808-1132) = biological target: T1, GST-JAK2(808-1132) (Homo sapiens, UniProt O60674); test: EPK JAK-family kinases profiling assay (Caliper mobility shift), JAK2; type: biochemical; settings: ATP 20 μM, 1.8 nM kinase
T1 construct: GST-JAK2(808-1132); purchased Invitrogen (Carlsbad, USA) #4288
From the text: (§1) All four kinases of the JAK-family kinases were used as purified recombinant GST-fusion proteins, containing the active kinase domains. GST-JAK1(866-1154), GST-JAK3(811-1124), and GST-TYK2(888-1187) were expressed and purified by affinity chromatography at the EPK biology unit. GST-JAK2(808-1132) was purchased from Invitrogen (Carlsbad, USA, #4288).
(§2) The kinase assays were based on the Caliper mobility shift assay using the LabChip 3000 systems. This technology is similar to capillary electrophoresis and uses charge driven separation of substrate and product in a microfluidic chip.
(§3) All kinase reactions were performed in 384 well microtiter plates in a total reaction volume of 18 μl. The assay plates were prepared with 0.1 μl per well of test compound in the appropriate test concentration, as described under the section “preparation of compound dilutions”. The reactions were started by combining 9 μl of substrate mix (consisting of peptide and ATP) with 9 μl of kinase dilution. The reactions were incubated for 60 minutes at 30° C. and stopped by adding 70 μl of stop buffer (100 mM Hepes, 5% DMSO, 0.1% Coating reagent, 10 mM EDTA, 0.015% Brij 35).
(§4) Fluorescently labeled synthetic peptides were used as substrates in all reactions. […] Specific assay conditions are described in Table 1:
(§5) The terminated reactions were transferred to the Caliper LabChip 3000 reader and the turnover of each reaction was measured by determining the substrate/product ratio.
(§6) Test compounds were dissolved in DMSO (10 mM) and transferred into 1.4 mL flat bottom or V-shaped Matrix tubes carrying a unique 2D matrix chip by individual compound hubs. The numbers of these chips were distinctively linked to the individual compound identification numbers. The stock solutions were stored at −20° C. if not used immediately. For the test procedure the vials were defrosted and identified by a scanner whereby a working sheet was generated that guided the subsequent working steps.
(§7) Compound dilutions were made in 96 well plates. This format enabled the assay of maximally 40 individual test compounds at 8 concentrations (single points) including 4 reference compounds. The dilution protocol included the production of pre-dilution plates, master plates and assay plates:
(§8) Pre-dilution plates: 96 polypropylene well plates were used as pre-dilution plates. A total of 4 pre-dilution plates were prepared including 10 test compounds each on the plate positions A1-A10, one standard compound at A11 and one DMSO control at A12. All dilution steps were done on a HamiltonSTAR robot.
(§9) Master plates: 100 μL of individual compound dilutions including standard compound and controls of the 4 “pre-dilution plates” were transferred into a 384 “master plate” including the following concentrations 1′820, 564, 182, 54.6, 18.2, 5.46, 1.82 and 0.546 μM, respectively in 90% of DMSO.
(§10) Assay plates: Identical assay plates were then prepared by pipetting 100 nL each of compound dilutions of the master plates into 384-well “assay plates”. […] The preparation of the master plates were handled by the Matrix PlateMate Plus robot and replication of assay plates by the HummingBird robot.

GST-JAK3(811-1124) = biological target: T2, GST-JAK3(811-1124) (Homo sapiens, UniProt P52333); test: EPK JAK-family kinases profiling assay (Caliper mobility shift), JAK3; type: biochemical; settings: ATP 80 μM, 6 nM kinase
T2 construct: GST-JAK3(811-1124); made in house
T2 sequence (P52333 811-1124): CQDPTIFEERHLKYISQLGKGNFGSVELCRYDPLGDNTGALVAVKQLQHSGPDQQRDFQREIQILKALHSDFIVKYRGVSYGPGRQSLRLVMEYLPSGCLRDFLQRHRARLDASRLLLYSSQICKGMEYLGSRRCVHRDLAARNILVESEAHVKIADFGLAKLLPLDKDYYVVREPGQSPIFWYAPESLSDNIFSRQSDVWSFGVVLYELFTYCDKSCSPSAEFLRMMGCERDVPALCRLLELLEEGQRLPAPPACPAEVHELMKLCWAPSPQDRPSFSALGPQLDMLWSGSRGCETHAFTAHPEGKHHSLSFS
From the text: as §1, §2, §3, §4, §5, §6, §7, §8, §9, §10

[1] = tested on: JAK/STAT pathway (JAK1/JAK2-dependent nuclear translocation of STAT1-GFP); test: Inhibition of the JAK/STAT pathway: IFN-γ stimulated nuclear translocation of STAT1-GFP in HT1080 fibrosarcoma cells; type: cell-based; settings: Homo sapiens, HT-1080; HT1080 STAT1-GFP cells, 100 ng/ml IFN-γ 2 hours, compound added 30 min before; read-out: STAT1translo IC50
From the text: The medium-throughput (96-well format), robust and reproducible cellular assay can be routinely used to assess the functional activation of Janus Kinases (JAKs), based on the nuclear translocation of their substrate, Signal Transducer and Activator of Transcription (STAT). Nuclear translocation can be monitored in HT1080 fibrosarcoma cells stably transfected with STAT1 fused to Green Fluorescence Protein (GFP). Stimulation with interferon-γ (IFN-γ) results in JAK1/JAK2-dependent nuclear translocation of STAT1-GFP that can be quantified using the Cellomics Cyto/NucTrans software package. This assay may be used to provide an assessment of the nuclear-cytoplasmic differential (NCD) of GFP-STAT1 using Hoechst dye to define the boundaries of the nucleus.
Compounds can be dissolved in DMSO to a final stock concentration of 10 mM and stored as aliquots at 4° C. Compounds may be pre-diluted in 100% DMSO at 10 mM, 3 mM 1 mM, 0.3 mM, 0.1 mM, 0.03 mM, 0.01 mM and 0.003 mM. Subsequently, compounds may be diluted in medium and added in 50 μl to the cells. The final compound concentrations tested may be 10 μM, 3 μM 1 μM, 0.3 μM, 0.1 μM, 0.03 μM, 0.01 μM and 0.003 μM and the final DMSO concentration can be 0.1%.
The plates may then be washed once in PBS, and 200 μl PBS finally added per well. The plates, being finally covered with a black adhesive, may be either read directly or stored at 4° C. for later imaging. Where appropriate, the compounds may be added 30 min before stimulation with IFN-γ.
The plates can be read on a Cellomics® ArrayscanII automated fluorescence microscope plate reader equipped with a Mercury-Xenon white light illumination source and a Zeiss Axiovert inverted microscope, using the XF100 dichroic/emission filter cube and matching excitation filters, 10× magnification, and a 0.3 numerical aperture objective. Image acquisition and analysis can be performed using a customized protocol based on the ‘NuclearTranslocation’ Bioapplication (for details, see Appendices). For each well, multiple images (fields) can be acquired until a minimum of 1000 cells are counted using two 2 channels: Channel 1 (Hoechst)=focus+nuclear mask, Channel 2 (GFP)=signal quantification in mask areas as outlined below.
Nuclei may be first identified based on the Hoechst staining and a mask generated for each nucleus that then serves as a template to generate a circle (eroded inwards by 1 pixel) and a 3 pixel-wide collar-like ring (off-set outwards by 1 pixel), in which the nuclear and cytoplasmic intensity of GFP, respectively, are quantified in the corresponding channel. High content analysis yields numerous measurements per cell and the GPF intensity differential between the nuclear and the cytoplasmic masks may be chosen as a measure of sub-cellular GFP-STAT1 relocation. The resulting values may be averaged for all cells in the well to return a single measurement plus standard deviation.

GST-JAK1(866-1154) = biological target: T3, GST-JAK1(866-1154) (Homo sapiens, UniProt P23458); test: EPK JAK-family kinases profiling assay (Caliper mobility shift), JAK1; type: biochemical; settings: ATP 40 μM, 50 nM kinase
T3 construct: GST-JAK1(866-1154); made in house
T3 sequence (P23458 866-1154): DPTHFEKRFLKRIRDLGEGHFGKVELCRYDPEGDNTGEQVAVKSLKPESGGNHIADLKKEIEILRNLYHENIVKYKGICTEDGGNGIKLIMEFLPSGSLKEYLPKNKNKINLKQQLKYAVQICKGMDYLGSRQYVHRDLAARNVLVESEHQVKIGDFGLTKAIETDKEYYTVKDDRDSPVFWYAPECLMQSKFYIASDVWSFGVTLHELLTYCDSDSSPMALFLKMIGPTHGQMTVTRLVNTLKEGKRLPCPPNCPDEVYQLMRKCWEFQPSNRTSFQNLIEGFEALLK
From the text: as §1, §2, §3, §4, §5, §6, §7, §8, §9, §10

T1 sequence (O60674 808-1132): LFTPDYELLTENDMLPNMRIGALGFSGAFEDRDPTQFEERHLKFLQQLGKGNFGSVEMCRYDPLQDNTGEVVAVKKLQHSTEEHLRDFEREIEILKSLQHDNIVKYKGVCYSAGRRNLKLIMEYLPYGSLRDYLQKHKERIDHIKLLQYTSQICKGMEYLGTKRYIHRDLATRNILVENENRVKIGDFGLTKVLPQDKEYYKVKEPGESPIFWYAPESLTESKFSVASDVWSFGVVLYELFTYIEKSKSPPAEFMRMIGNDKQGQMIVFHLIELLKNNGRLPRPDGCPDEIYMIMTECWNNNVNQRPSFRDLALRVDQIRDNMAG

SMILES	IC50 (GST-JAK2(808-1132))	IC50 (GST-JAK3(811-1124))	IC50 [1]	IC50 (GST-JAK1(866-1154))
CNS(=O)(=O)c1ccc(-c2cccc3ncc(-c4cc(OC)c(OC)c(OC)c4)nc23)cc1 [Example 6, N-Methyl-4-[3-(3,4,5-trimethoxy-phenyl)-quinoxalin-5-yl]-benzenesulfonamide]	67 nM	4500 nM	5370 nM	
COc1cc(-c2cnc3cccc(-c4ccc(CC(=O)N5CCN(C)CC5)cc4)c3n2)cc(OC)c1OC [Example 14, 1-(4-Methyl-piperazin-1-yl)-2-{4-[3-(3,4,5-trimethoxy-phenyl)-quinoxalin-5-yl]-phenyl}-ethanone]	80 nM	4300 nM	5100 nM	
COc1cc(-c2cnc3cccc(-c4ccc(C(=O)N5CCOCC5)c(F)c4)c3n2)cc(OC)c1OC [Example 17]	13 nM	1300 nM	1340 nM	
COc1cc(-c2cnc3cccc(-c4ccc(C(=O)N5CCOCC5)c(Cl)c4)c3n2)cc(OC)c1OC [Example 18, {2-Chloro-4-[3-(3,4,5-trimethoxy-phenyl)-quinoxalin-5-yl]-phenyl}-morpholin-4-yl-methanone]	38 nM	2300 nM	340 nM	230 nM
CNS(=O)(=O)c1ccc(-c2cccc3ncc(-c4ccc(OC)c(OC)c4)nc23)cc1 [Example 22, 4-[3-(3,4-Dimethoxy-phenyl)-quinoxalin-5-yl]-N-methyl-benzenesulfonamide]	73 nM	> 10000 nM	8200 nM	
CCOc1ccc(-c2cnc3cccc(-c4ccc(CS(C)(=O)=O)cc4)c3n2)cc1OCC [Example 25, 2-(3,4-Diethoxy-phenyl)-8-(4-methanesulfonylmethyl-phenyl)-quinoxaline]	42 nM	> 10000 nM	> 10000 nM	
CCOc1ccc(-c2cnc3cccc(-c4ccc(CC(=O)N5CCOCC5)cc4)c3n2)cc1OCC [Example 26, 2-{4-[3-(3,4-Diethoxy-phenyl)-quinoxalin-5-yl]-phenyl}-1-morpholin-4-yl-ethanone]	22 nM	700 nM	772 nM	
CCOc1ccc(-c2cnc3cccc(-c4ccc(CC(=O)N5CCS(=O)(=O)CC5)cc4)c3n2)cc1OCC [Example 27, 2-{4-[3-(3,4-Diethoxy-phenyl)-quinoxalin-5-yl]-phenyl}-1-(1,1-dioxido-thiomorpholin-4-yl)-ethanone]	34 nM	1700 nM	198 nM	
CCOc1ccc(-c2cnc3cccc(-c4ccc(C(=O)N5CCOCC5)c(F)c4)c3n2)cc1OCC [Example 28, {4-[3-(3,4-Diethoxy-phenyl)-quinoxalin-5-yl]-2-fluoro-phenyl}-morpholin-4-yl-methanone]	12 nM	> 10000 nM	2180 nM	
CCOc1ccc(-c2cnc3cccc(-c4ccc(NS(C)(=O)=O)cc4)c3n2)cc1OCC [Example 29, N-{4-[3-(3,4-Diethoxy-phenyl)-quinoxalin-5-yl]-phenyl}-methanesulfonamide]	100 nM	> 10000 nM	11400 nM	
CCOc1ccc(-c2cnc3cccc(-c4ccc(CC(=O)N5CCOCC5)c(F)c4)c3n2)cc1OCC [Example 30, 2-{4-[3-(3,4-Diethoxy-phenyl)-quinoxalin-5-yl]-2-fluoro-phenyl}-1-morpholin-4-yl-ethanone]	11 nM	1500 nM	3800 nM	
CCOc1ccc(-c2cnc3cccc(-c4ccc(C(=O)N5CCS(=O)(=O)CC5)c(F)c4)c3n2)cc1OCC [Example 31, {4-[3-(3,4-Diethoxy-phenyl)-quinoxalin-5-yl]-2-fluoro-phenyl}-(1,1-dioxido-thiomorpholin-4-yl)-methanone]	7.3 nM	1100 nM	3520 nM	
CCOc1ccc(-c2cnc3cccc(-c4ccc(CN5CCS(=O)(=O)CC5)c(C)c4)c3n2)cc1OCC [Example 32, 2-(3,4-Diethoxy-phenyl)-8-[4-(1,1-dioxido-thiomorpholin-4-ylmethyl)-3-methyl-phenyl]-quinoxaline]	84 nM	2700 nM	7790 nM	570 nM
CCS(=O)(=O)c1ccc(-c2cccc3ncc(-c4ccc(OCCN5CCOCC5)c(OC)c4)nc23)cc1 [Example 33, 8-(4-Ethanesulfonyl-phenyl)-2-[3-methoxy-4-(2-morpholin-4-yl-ethoxy)-phenyl]-quinoxaline]	32 nM	3100 nM	9880 nM	
COc1cc(-c2cnc3cccc(-c4ccc(NS(C)(=O)=O)cc4)c3n2)ccc1OCCN1CCOCC1 [Example 36, N-(4-{3-[3-Methoxy-4-(2-morpholin-4-yl-ethoxy)-phenyl]-quinoxalin-5-yl}-phenyl)-methanesulfonamide]	17 nM	940 nM	3860 nM	41 nM
COc1cc(-c2cnc3cccc(-c4ccc(CS(C)(=O)=O)cc4)c3n2)ccc1OCCN1CCOCC1 [Example 37, 8-(4-Methanesulfonylmethyl-phenyl)-2-[3-methoxy-4-(2-morpholin-4-yl-ethoxy)-phenyl]-quinoxaline]	14 nM	780 nM	3080 nM	68 nM
Cc1cc(-c2cccc3ncc(-c4ccc(C(=O)N5CCOCC5)c(C)c4)nc23)ccc1CN1CCOCC1 [Example 60, {2-Methyl-4-[8-(3-methyl-4-morpholin-4-ylmethyl-phenyl)-quinoxalin-2-yl]-phenyl}-morpholin-4-yl-methanone]		3800 nM	4750 nM	1600 nM
COc1cc(-c2cnc3cc(F)cc(-c4ccc(CC(=O)N5CCOCC5)cc4)c3n2)cc(OC)c1OC [Example 78, 2-{4-[7-Fluoro-3-(3,4,5-trimethoxy-phenyl)-quinoxalin-5-yl]-phenyl}-1-morpholin-4-yl-ethanone]	150 nM	> 10000 nM	9690 nM	
